Measured values: PubChem BioAssay AID248 (DTP/NCI, 2004)
Where “and” joins values, the source holds several entries; their conditions need not be identical. Equal entries are not always repeated. Toxic doses and inconclusive results are not listed. Cut-off read from the data, not from the text of the source: active = T/C of 150% or more; inactive = T/C below 125%.

Test system: L1210 leukemia ip in BDF1 mice, survival T/C
Assay: NCI In Vivo Anticancer Drug Screen. Data for tumor model L1210 Leukemia (intraperitoneal) in B6D2F1 (BDF1) mice
Conditions: endpoint: mean survival time, higher = longer survival
In short: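 Tumor cells were implanted, animals were treated, and survival was followed. The result divides the treated measurement by the vehicle-control measurement.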

[1] = dose: 100.0 mg/kg/injection, schedule: Q04DX003 (ip), vehicle: saline with Tween-80
[2] = dose: 200.0 mg/kg/injection, schedule: Q04DX003 (ip), vehicle: saline with Tween-80
[3] = dose: 400.0 mg/kg/injection, schedule: Q04DX003 (ip), vehicle: saline with Tween-80
[4] = dose: 100.0 mg/kg/injection, schedule: Q01DX009 (ip), vehicle: Klucel (hydroxypropylcellulose) (HPC)
[5] = dose: 200.0 mg/kg/injection, schedule: Q01DX009 (ip), vehicle: Klucel (hydroxypropylcellulose) (HPC)
[6] = dose: 400.0 mg/kg/injection, schedule: Q01DX009 (ip), vehicle: Klucel (hydroxypropylcellulose) (HPC)
[7] = dose: 100.0 mg/kg/injection, schedule: Q04DX003 (ip), vehicle: Klucel (hydroxypropylcellulose) (HPC)
[8] = dose: 200.0 mg/kg/injection, schedule: Q04DX003 (ip), vehicle: Klucel (hydroxypropylcellulose) (HPC)
[9] = dose: 100.0 mg/kg/injection, schedule: Q01DX001 (ip), vehicle: saline with Tween-80
[10] = dose: 200.0 mg/kg/injection, schedule: Q01DX001 (ip), vehicle: saline with Tween-80
[11] = dose: 400.0 mg/kg/injection, schedule: Q01DX001 (ip), vehicle: saline with Tween-80
[12] = dose: 75.0 mg/kg/injection, schedule: Q01DX001 (ip), vehicle: carboxymethylcellulose (CMC)
[13] = dose: 150.0 mg/kg/injection, schedule: Q01DX001 (ip), vehicle: carboxymethylcellulose (CMC)
[14] = dose: 400.0 mg/kg/injection, schedule: Q04DX003 (ip), vehicle: Klucel (hydroxypropylcellulose) (HPC)
[15] = dose: 100.0 mg/kg/injection, schedule: Q01DX001 (ip), vehicle: Klucel (hydroxypropylcellulose) (HPC)
[16] = dose: 200.0 mg/kg/injection, schedule: Q01DX001 (ip), vehicle: Klucel (hydroxypropylcellulose) (HPC)
[17] = dose: 50.0 mg/kg/injection, schedule: Q01DX001 (ip), vehicle: Klucel (hydroxypropylcellulose) (HPC)
[18] = dose: 100.0 mg/kg/injection, schedule: Q04DX002 (ip), vehicle: saline with Tween-80
[19] = dose: 200.0 mg/kg/injection, schedule: Q04DX002 (ip), vehicle: saline with Tween-80
[20] = dose: 400.0 mg/kg/injection, schedule: Q04DX002 (ip), vehicle: saline with Tween-80

Measured: T/C

COc1ccc(C(=O)C[N+](=O)[O-])cc1
inactive: dose: 100.0 mg/kg/injection, schedule: Q01DX009 (ip), vehicle: saline with Tween-80 94 % of control | [1] 106 % of control | dose: 200.0 mg/kg/injection, schedule: Q01DX009 (ip), vehicle: saline with Tween-80 99 % of control | [2] 103 % of control | [3] 101 % of control

CC(C)c1ccc(N2P(=O)(N(C)C)N(c3ccc(C(C)C)cc3)P2(=O)N(C)C)cc1 (stereo not given)
inactive: [4] 95 % of control | [5] 92 % of control | [6] 98 % of control

COC(=O)C(CSCc1ccccc1)NC(=O)OCc1ccccc1 (stereo not given)
inactive: [4] 96 % of control | [7] 90 % of control | [5] 94 % of control | [8] 87 % of control | [6] 94 % of control

CSc1ccc(OC(C)=O)cc1C
inactive: dose: 100.0 mg/kg/injection, schedule: Q01DX001 (ip), vehicle: saline 106 % of control | dose: 200.0 mg/kg/injection, schedule: Q01DX001 (ip), vehicle: saline 98 % of control | dose: 400.0 mg/kg/injection, schedule: Q01DX001 (ip), vehicle: saline 96 % of control

Cc1ccc(C(=O)Cl)cc1S(=O)(=O)F
inactive: dose: 25.0 mg/kg/injection, schedule: Q01DX009 (ip), vehicle: saline with Tween-80 95 % of control | dose: 25.0 mg/kg/injection, schedule: Q04DX003 (ip), vehicle: saline with Tween-80 96 % of control | dose: 50.0 mg/kg/injection, schedule: Q01DX009 (ip), vehicle: saline with Tween-80 104 % of control | dose: 50.0 mg/kg/injection, schedule: Q04DX003 (ip), vehicle: saline with Tween-80 100 % of control | [1] 96 % of control | [2] 94 % of control and 102 % of control

CC(C)(C)OC1C2C=CC1C1C2C(C)(C)C1(C)C (stereo not given)
inactive: [9] 90 % of control | [10] 90 % of control

CC12CCC(C1)C(C)(C)/C2=N\N=C(N)N (stereo not given)
inactive: dose: 15.0 mg/kg/injection, schedule: Q01DX Z (ip), vehicle: saline 93 % of control | dose: 30.0 mg/kg/injection, schedule: Q01DX Z (ip), vehicle: saline 103 % of control | dose: 60.0 mg/kg/injection, schedule: Q01DX Z (ip), vehicle: saline 93 % of control | dose: 120.0 mg/kg/injection, schedule: Q01DX Z (ip), vehicle: saline 97 % of control | dose: 188.0 mg/kg/injection, schedule: Q01DX Z (oral), vehicle: saline 103 % of control | dose: 375.0 mg/kg/injection, schedule: Q01DX Z (oral), vehicle: saline 105 % of control | dose: 750.0 mg/kg/injection, schedule: Q01DX Z (oral), vehicle: saline 91 % of control

CC(C)(C)OOC(=O)Nc1ccc(Cl)cc1
inactive: [10] 89 % of control | [11] 92 % of control

C(=C\c1cccc2ccccc12)/c1ccncc1
inactive: [12] 97 % of control | [13] 88 % of control | dose: 300.0 mg/kg/injection, schedule: Q01DX001 (ip), vehicle: carboxymethylcellulose (CMC) 90 % of control

Fc1ccccc1-c1nnc(-c2ccccc2)o1
inactive: [7] 98 % of control | [8] 113 % of control | [14] 103 % of control

CC(=O)Nc1cc(Cl)c2[nH]cnc2n1
inactive: dose: 88.0 mg/kg/injection, schedule: Q01DX001 (ip), vehicle: Klucel (hydroxypropylcellulose) (HPC) 100 % of control | [15] 101 % of control | dose: 100.0 mg/kg/injection, schedule: Q04DX003 (ip), vehicle: water 110 % of control | dose: 133.0 mg/kg/injection, schedule: Q01DX001 (ip), vehicle: Klucel (hydroxypropylcellulose) (HPC) 90 % of control | [16] 95 % of control | dose: 200.0 mg/kg/injection, schedule: Q04DX003 (ip), vehicle: water 115 % of control | dose: 300.0 mg/kg/injection, schedule: Q01DX001 (ip), vehicle: Klucel (hydroxypropylcellulose) (HPC) 97 % of control

c1ccc(CNCC(NCc2ccccc2)c2ccccc2)cc1 (stereo not given)
inactive: [7] 91 % of control | [1] 93 % of control | [8] 93 % of control | [2] 97 % of control | [14] 98 % of control | [3] 88 % of control

O=C1OC(=O)c2cccc3cccc1c23
inactive: [17] 98 % of control | [15] 97 % of control | [16] 94 % of control | dose: 400.0 mg/kg/injection, schedule: Q01DX001 (ip), vehicle: Klucel (hydroxypropylcellulose) (HPC) 111 % of control

C=C1C(=O)OC2C1CCC(C)C1(CCC(=O)O1)C2(C)O (stereo not given)
inactive: [1] 96 % of control | [2] 96 % of control | [3] 96 % of control

N#C/C(=C/Cc1ccc(Cl)cc1)Nc1ccccc1C(N)=O
inactive: dose: 12.5 mg/kg/injection, schedule: Q01DX001 (ip), vehicle: Klucel (hydroxypropylcellulose) (HPC) 101 % of control | dose: 25.0 mg/kg/injection, schedule: Q01DX001 (ip), vehicle: Klucel (hydroxypropylcellulose) (HPC) 101 % of control | [17] 102 % of control | dose: 75.0 mg/kg/injection, schedule: Q04DX003 (ip), vehicle: Klucel (hydroxypropylcellulose) (HPC) 104 % of control | dose: 115.0 mg/kg/injection, schedule: Q04DX003 (ip), vehicle: Klucel (hydroxypropylcellulose) (HPC) 104 % of control | dose: 170.0 mg/kg/injection, schedule: Q04DX003 (ip), vehicle: Klucel (hydroxypropylcellulose) (HPC) 98 % of control

CNc1ccc(C(=O)O)cc1I
inactive: [4] 100 % of control | [7] 94 % of control | [5] 94 % of control | [8] 103 % of control | [6] 94 % of control | [14] 96 % of control

Cc1cc(C)[n+](C)c(C)c1
inactive: dose: 12.5 mg/kg/injection, schedule: Q04DX003 (ip), vehicle: saline 96 % of control | dose: 25.0 mg/kg/injection, schedule: Q04DX003 (ip), vehicle: saline 93 % of control | dose: 50.0 mg/kg/injection, schedule: Q04DX003 (ip), vehicle: saline 101 % of control | dose: 100.0 mg/kg/injection, schedule: Q04DX003 (ip), vehicle: saline 93 % of control

CCN1CCC(c2ccccc2)(c2ccccc2)C1=N
inactive: [12] 89 % of control

O=C(Nc1cccc(Cl)c1)SCCSC(=O)Nc1cccc(Cl)c1
inactive: [9] 88 % of control | [1] 98 % of control | [10] 93 % of control | [2] 87 % of control | [3] 88 % of control

O=Cc1cc2ccccc2[nH]1
inactive: [18] 105 % of control | [19] 102 % of control | [20] 102 % of control

Nc1cc(SC(c2ccccc2)c2ccccc2)c([N+](=O)[O-])c(N)n1
inactive: [9] 92 % of control | [10] 101 % of control | [11] 95 % of control

CCCCN1CSC(=S)N(CCCC)C1
inactive: [18] 100 % of control | [19] 93 % of control | [20] 105 % of control

CC(=O)NC1C(O)C(NC(C)=O)C(OC(C)=O)C(OC(C)=O)C1OC(C)=O (stereo not given)
inactive: [1] 95 % of control | [2] 101 % of control | [3] 94 % of control

CC(N)c1cccc2ccccc12 (stereo not given)
inactive: dose: 25.0 mg/kg/injection, schedule: Q04DX002 (ip), vehicle: saline 98 % of control | dose: 50.0 mg/kg/injection, schedule: Q04DX002 (ip), vehicle: saline 94 % of control | dose: 100.0 mg/kg/injection, schedule: Q04DX002 (ip), vehicle: saline 98 % of control

NC(=O)N/N=C(\CCl)c1ccccc1
inactive: dose: 12.0 mg/kg/injection, schedule: Q04DX003 (ip), vehicle: saline 93 % of control

CCCS(=O)(=O)N1CCCC(C)C1 (stereo not given)
inactive: dose: 100.0 mg/kg/injection, schedule: Q04DX002 (ip), vehicle: Klucel (hydroxypropylcellulose) (HPC) 94 % of control | dose: 200.0 mg/kg/injection, schedule: Q04DX002 (ip), vehicle: Klucel (hydroxypropylcellulose) (HPC) 97 % of control | dose: 400.0 mg/kg/injection, schedule: Q04DX002 (ip), vehicle: Klucel (hydroxypropylcellulose) (HPC) 97 % of control

CC(=O)CC(=O)N(C)c1ccccc1
inactive: [12] 104 % of control | [13] 105 % of control

O=C(O)c1cc(N=Nc2ccccc2C(=O)O)ccc1O
inactive: [7] 92 % of control | [8] 94 % of control | [14] 112 % of control
